# Assay results published in patent publication US5536744A, “Imidazolinoxyl derivatives” (Dojindo Laboratories, priority 1993, dated 1996).
# Read-outs that look alike come from different tables or passages of the source.
# How the values were obtained:
# [1] = tested on: circumflex branch of the left coronary artery; test: Comparative Example 1: blood flow after administration of compound A reduced with ascorbic acid; format: in vivo, mongrel dogs
# Method: The operation of Example 4 was conducted by administering the compound A wherefrom the N-oxyl radical was inactivated only after reducing with ascorbic acid. […] It is therefore apparent that the pharmacological action was due to the radical in the molecule and that the compounds of the present invention are the pharmaceuticals of a new type.
# [2] = Behavior of compound A in blood flow: blood and urine samples determined by electronic spin resonance after the administration; settings: for clearance (in words) / excretion from the kidney: dog, in vivo
# Method: Thus, within a certain period after the administration, samples of blood and urine were collected and "a concentration of the compound A which was unchanged and retained" and "a total concentration after oxidization with potassium ferricyanide" were determined by means of an electronic spin resonance (RF80; Nippon Denshi).
# [3] = tested on: ring samples of the circumflex branch (coronary artery); test: In vitro test: relaxation of ring samples of the circumflex branch precontracted by prostaglandin F2α (isometric tension); design: species or system mongrel adult dogs; settings: for EC50: Canis lupus familiaris, read-out: ED50 value expressed in terms of a minus logarithm of the administered concentration, endothelium absent (converted)
# Method: After an anesthetization of the mongrel adult dogs, the extracted ring samples (outer diameter: about 2 mm) of the circumflex branch were prepared, hung in a chamber filled with 3 ml of a Krebs buffer which was oxidated (with 95% oxygen and 5% […]), balanced with an initial tension of 2 g and subjected to a precontraction by prostaglandin F2α (concentration in the chamber: 2 μM).
# To this was added the compound A on an accumulated manner whereby its concentration in the chamber became from 1 μM to 1 mM and the resulting changes in the isometric tension were measured using a tranducer (manufactured by Minebea) and recorded in a pen recorder (SR6211 manufactured by Graphtec). Incidentally, the changes in the tension were evaluated on a basis that the precontraction by prostaglandin F2α was 100%. In some of the samples, the endothelium was exfoliated (confirmed by a disappearance of the relaxation to 1 μM of acetylcholine) and, furthermore, they were subjected to a pretreatment with Methylene Blue, an inhibitor for a soluble guanylate cyclase, (concentration in the chamber: 10 μM; administered 30 minutes before) whereby the effect was investigated.
# Therefore, it is supposed that the compounds of the present invention activated the guanylate cyclase on a continued basis whereby the blood vessel was continuously relaxed.
# [4] = tested on: circumflex branch of the left coronary artery; test: Test on the relaxation of coronary arteries: coronary blood flow and blood flow status (haemodynamics) in anesthetized open-chest dogs, intracoronary administration; format: in vivo, mongrel adult dogs; settings: for Blood Flow at Rotation Branch: 4 min
# Method: Twenty mongrel adult dogs were anesthetized with 30 mg/kg pentobarbital, their breasts were opened under an artificial respiration and heparin (3,000 IU/kg; each 1,000 IU/mg administered intravenously every 30 minutes thereafe) and aspirin (17 mg/kg) were administered. Then a cannula was inserted near the circumflex branch of the left coronary artery and a perfusion was conducted by means of a bypath from the whole left carotid artery. Coronary blood flow was measured, by an electromagnetic blood flowmeter (MFV-3200 manufactured by Nippon Koden) via a probe for measuring the blood flow (manufactured by Nippon Koden) located at the center of the bypath while the artery pressure and the left cardiac pressure were measured at an underarm artery and by means of a catheter inserted from the apex, respectively.
# [5] = tested on: circumflex branch of the left coronary artery; test: Effect of various pharmaceuticals on coronary blood flow increase by administration of compound A; format: in vivo, mongrel adult dogs; settings: 1.0 mM in artery
# Method: The compound A was administered for four minutes, by the same manner as in Example 6, to a control group, to a group (LNAME-treated group) which was pretreated with a methyl ester of NG-nitro-L-arginine which was an inhibitor for the production of nitrogen monoxide caused by endothelium (by administering to the coronary artery at the dose of 200 μM for six minutes), to a group (8PT-treated group) which was pretreated with 8-phenyltheophylline which was an adenosnine antagonist (by administering to the coronary artery at the dose of 30 ng/kg/minute) an a group (autonomic nerve blocking group) which was pretreated with a pharmacological autonomic blocking agent (by an intravenous administration of 0.1 mg/kg of atropine, 1 mg/kg of propranolol and 2 mg/kg of phentolamine) to make the concentration of the compound A in the coronary artery 1.0 mM whereby the results were compared.
smiles,measurement,setting,value
CC1(C)N=C(c2ccc(C(=O)O)cc2)N(O)C1(C)C,blood flow after the administration,"[1]; 1.0 mM (FIG. 3), before the administration 22.4 ml/minute",22.8 mL/min
same,pharmacological action (in words),[1]; after reducing with ascorbic acid,completely disappeared
same,change in the blood flow (in words),"[1]; before vs after the administration, FIG. 3",no changes in the blood flow
same,clearance (in words),[2],very prompt
same,excretion from the kidney,[2],rapidly excreted from the kidney
"CN(C)c1ccc2nc3ccc(=[N+](C)C)cc-3sc2c1 [Methylene Blue, reference compound]",inhibition of the coronary artery relaxing action of compound A (in words),"[3]; endothelium absent, 10 μM, 30 minutes before",found to inhibit that
CC1(C)N=C(c2ccc(C(=O)O)cc2)N([O])C1(C)C [Compound A],Av. Blood Pressure,[4]; 0.1 mM in artery,130 ± 8 mmHg
same,Left Cardiac dp/dt,[4]; 0.1 mM in artery,1132 ± 60 mmHg/sec
same,Pres. at Final Stage of Left Cardiac Dilation,[4]; 0.1 mM in artery,11 ± 2 mmHg
same,Pulse Numbers,[4]; 0.1 mM in artery,155 ± 8 min⁻¹
same,Blood Flow at Rotation Branch,[4]; 0.1 mM in artery,29.8 ± 3.6 mL/min
same,Av. Blood Pressure,[4]; 0.3 mM in artery,133 ± 8 mmHg
same,Left Cardiac dp/dt,[4]; 0.3 mM in artery,1210 ± 63 mmHg/sec
same,Pres. at Final Stage of Left Cardiac Dilation,[4]; 0.3 mM in artery,10 ± 2 mmHg
same,Pulse Numbers,[4]; 0.3 mM in artery,154 ± 8 min⁻¹
same,Blood Flow at Rotation Branch,"[4]; 0.3 mM in artery, p < 0.05 to the control",41.5 ± 5.7 mL/min
same,duration of effect on coronary blood flow after completion of the administration,[4]; 1 mM for four minutes,≥ 30 min
same,increase in coronary blood flow (fold),[4]; 1 mM for four minutes,about three
same,increasing rate of coronary blood flow,[4]; 1 mM for four minutes,ca. 200%
same,Av. Blood Pressure,[4]; 1.0 mM in artery,132 ± 7 mmHg
same,Left Cardiac dp/dt,[4]; 1.0 mM in artery,1241 ± 50 mmHg/sec
same,Pres. at Final Stage of Left Cardiac Dilation,[4]; 1.0 mM in artery,10 ± 2 mmHg
same,Pulse Numbers,[4]; 1.0 mM in artery,157 ± 8 min⁻¹
same,Blood Flow at Rotation Branch,"[4]; 1.0 mM in artery, p < 0.01 to the control, 0.1 mM and 0.3 mM",89.7 ± 10.6 mL/min
same,blood pressure (in words),"[4]; 0.1, 0.3 and 1.0 mM in artery",no change
same,contracting power of the heart (in words),"[4]; 0.1, 0.3 and 1.0 mM in artery",rather improved
same,left cardiac dp/dt (in words),"[4]; 0.1, 0.3 and 1.0 mM in artery",increasing tendency
same,pressure at the final stage of the left cardiac dilation (in words),"[4]; 0.1, 0.3 and 1.0 mM in artery",no change
same,pulse numbers (in words),"[4]; 0.1, 0.3 and 1.0 mM in artery",no change
same,coronary blood flow (in words),"[4]; 0.1, 0.3 and 1.0 mM in artery, FIG. 2",significant increase in the coronary blood flow
same,side effect (in words),[4]; intracoronary administration,no side effect was noted
same,% Increase of blood flow in rotary branch,[5]; 8PT-treated group,120 ± 10%
same,"Blood Flow in Rotary Branch, after administration of Compd A","[5]; 8PT-treated group, before 23.1 ± 2.7",51.6 ± 5.8 mL/min
same,influence of pretreatments on the action of the compound A (in words),"[5]; LNAME, 8-phenyltheophylline, autonomic blockade",none of the pharmaceuticals affected on the action of the compound A
same,% Increase of blood flow in rotary branch,[5]; LNAME-treated group,155 ± 28%
same,"Blood Flow in Rotary Branch, after administration of Compd A","[5]; LNAME-treated group, before 26.1 ± 2.7",67.0 ± 11.5 mL/min
same,% Increase of blood flow in rotary branch,[5]; autonomic nerve blocked group,137 ± 56%
same,"Blood Flow in Rotary Branch, after administration of Compd A","[5]; autonomic nerve blocked group, before 19.5 ± 3.3",49.3 ± 18.5 mL/min
same,% Increase of blood flow in rotary branch,[5]; control group,164 ± 31%
same,"Blood Flow in Rotary Branch, after administration of Compd A","[5]; control group, before 32.0 ± 2.1",84.9 ± 13.7 mL/min
same,influence of the endothelium on coronary artery relaxation (in words),"[3]; 1 μM to 1 mM, with vs without endothelium, FIG. 4",stronger than that in the absence of the endothelium
same,EC50,[3]; no Methylene Blue,10 µM
same,EC50,"[3]; with Methylene Blue 10 μM, 30 minutes before, p<0.01",79.4 µM
same,reduction in blood (stability of N-oxyl radical),"[2]; by ascorbic acid, etc. in blood","quickly reduced by ascorbic acid, etc. in blood"
same,clearance (in words),[2],very prompt
same,excretion from the kidney,[2],rapidly excreted from the kidney
same,total amount of compound A remaining in the blood,[2]; one minute after the administration,about 0.3%
